# pIC50: −log10 of the molar value.
# What was measured:
# [1] = biological target: human recombinant PDE5 (Homo sapiens, UniProt O76074); assay: Inhibitory effect on cGMP-PDE (PDE5 IC50); type: biochemical; conditions: in vitro, human recombinant PDE5, 0.15 μM 8-[H3]-cGMP, 30 min incubation
# Experimental: The compounds of structural formula (I) were tested for an ability to inhibit PDE5. The ability of a compound to inhibit PDE5 activity is related to the IC50 value for the compound, i.e., the concentration of inhibitor required for 50% inhibition of enzyme activity. The IC50 value for compounds of structural formula (I) were determined using recombinant human PDE5.
# cGMP-PDE activity of compounds of the present invention was measured using a one-step assay adapted from Wells et al., Biochim. Biophys. Acta, […], 430 (1975). The reaction medium contained 50 mM Tris-HCl, pH 7.5, 5 mM magnesium acetate, 250 μg/ml 5′-Nucleotidase, 1 mM EGTA, and 0.15 μM 8-[H^3]-cGMP. Unless otherwise indicated, the enzyme used was a human recombinant PDE5 (ICOS Corp., Bothell, Wash.).
# Compounds of the invention were dissolved in DMSO finally present at 2% in the assay.
melting point,pIC50 [1],Compound
250.5 to 256.6 °C,7.35,"CN1CC(=O)N2[C@H](c3ccc(O)c(O)c3)c3[nH]c4ccccc4c3C[C@@H]2C1=O [Example 1, (6R,12aR)-6-(3,4-Dihydroxyphenyl)-2-methyl-2,3,6,7,12,12a-hexahydropyrazino[1′,2′:1,6]-pyrido[3,4-b]indole-1,4-dione]"
288.2 to 292.2 °C,6.64,"COc1cc([C@@H]2c3[nH]c4ccccc4c3C[C@@H]3C(=O)N(C)CC(=O)N23)ccc1O [Example 2, (6R,12aR)-6-(4-Hydroxy-3-methoxyphenyl)-2-methyl-2,3,6,7,12,12a-hexahydropyrazino[1′,2′:1,6]-pyrido[3,4-b]indole-1,4-dione]"

# — patent publication US20030153575A1, “Tetracyclic diketopiperazine compounds as pdev inhibitors” (priority 2002, published 2003)
